Tests used:
[1] = system: human articular chondrocytes from osteoarthritic (OA) cartilage; assay: Aggrecan synthesis by OA chondrocytes in alginate beads (ELISA of interterritorial matrix); type: cell-based; settings: 5 μg/ml, 5 culture days
Excerpt: (§1) Human articular chondrocytes were isolated as described in J. Tissue Culture Methods (1993) 15:139-146). Briefly, human articular cartilage was obtained at total knee replacement surgery from femoral condyles and the tibial plateau of 15 different donors. None of them had received corticosteroids or cytostatic drugs. Both visually intact and fibrillated OA cartilage samples were harvested separately and only OA cartilage was used for cell culture. The cartilage samples were diced into small fragments and the chondrocytes were isolated by sequential enzymatic digestion (hyaluronidase, pronase and collagenase) of the extracellular matrix (ECM) as described in Osteoarthritis Cartilage (2001) 9:73-84. Isolated cells were then centrifuged for 10 minutes at 1500 rpm, washed three times in Dulbecco's Modified Eagle's Medium (DMEM) with 10% (v/v) fetal calf serum, and counted with trypan blue to exclude dead cells. More than 90% of the cells were viable after isolation.
(§2) Chondrocytes were cultured in alginate beads, to maintain their differentiated phenotype. The cultures were prepared as described in Connect Tissue Res. (1989) 19:277-297. Chondrocytes suspended in one volume of double-concentrated Hank's Balanced Salts Solution (HBSS, commercially available from Gibco) without calcium and magnesium were carefully mixed with an equal volume of 2% (w/v) autoclaved alginate (low-viscosity alginate from Macrocystis pyrifera, commercially available from Sigma) in HBSS. The final cell concentration was 5×10^6 chondrocytes per ml in 1% alginate. The chondrocyte/alginate suspension was then slowly dripped through a 23-gauge needle into a 102 mM calcium chloride solution. […]
(§3) To study the impact of the changes in the chondrocyte cultures after cyclodextrin polysulfate treatment, mean IL-6 and aggrecan concentrations were calculated from triplicate chondrocyte cultures of each donor. […] Evolution of mouse weight over time was analysed by longitudinal data analysis methods, more specific by area under the curve and mixed model analysis. […]

[2] = system: human articular chondrocytes from osteoarthritic (OA) cartilage; assay: IL-6 release by OA chondrocytes in alginate beads; type: cell-based; settings: 5 μg/ml, 5 culture days
Excerpt: as §1, §2, §3

[3] = system: rabbit model of experimental osteoarthritis (OA); settings: subcutaneously administered; cited from earlier work
[4] = system: healthy donor thrombocytes; assay: Platelet activation (CD62p, flow cytometry) by HIT patient anti-heparin/PF4 antibodies; type: cell-based, human; settings: for ratio: % CD62p+ (with substance)/% CD62p+ (without) / ΔCD62p+ %: percentage increases in CD62p positive platelets: 0.3 IU heparin or 5 μg/ml polysaccharide
Protocol: The activation of healthy donor thrombocytes by HIT patient anti-heparin/PF4 antibodies in the presence of heparin and the differently sulfated forms of β-cyclodextrin was tested. […] The expression of CD62p by the activated platelets was assayed by means of flow cytometry with a FC500 analyzer (available from Beckman Coulter, Belgium). Platelet-rich plasma solution (PRP) was prepared by slow centrifugation (10 minutes at 180 g) of fresh citrate anti-coagulated blood (1:9 v/v, 0.129 mol/L or 3.8% trisodium citrate buffer), obtained from normal donors. HIT Ab positive plasma samples from patients and HIT Ab negative control plasma from healthy donors were prepared by double centrifugation (15 minutes at 2230 rpm) of fresh citrate anti-coagulated blood. 70 μl of PRP was incubated with 20 μL of HIT Ab containing plasma optionally in the presence of heparin (0.3 IU/ml) or the relevant β-cyclodextrin derivative (5 μg/ml). Experiments with each HIT Ab positive plasma sample were repeated independently using thrombocytes of 2 donors (A and B), to avoid the possibility of non-reactive platelets.
Following the initial 40 minutes incubation step, 5 μl of the platelets solution was transferred to a fresh tube with 85 μL phosphate buffered saline (PBS) containing 1% bovine serum albumin (BSA) and 0.1% Na-azide, 5 μl (0.25 μg) monoclonal anti-CD41 antibodies (Ab) (phycoerythrin-Texas Red Energy coupled dye (ECD)-conjugated, Beckman Coulter) and 5 μl (0.125 μg) of anti-CD62p Ab (phycoerythrin (PE)-conjugated, Beckman Coulter). CD41 (Glycoprotein […]) is a selective marker of platelets and platelet precursors. CD62p is a constituent of alpha granules and is released to the platelet surface on activation.
After 20 minutes of incubation at room temperature, the total volume of the platelet suspension was adjusted to 600 μL buffered solution and evaluated without delay by flow cytometry. 20,000 events per sample were analysed and the platelet populations were gated by side scatter characteristics and the platelet marker CD41. The fraction of activated platelets among the total platelet population was determined and relative CD62p ratios to the internal controls were calculated. [ratio: % CD62p^+ (0.3 IU Heparine or 5 μg/ml β-cyclodextrin derivative)/% CD62p^+ (0 IU Heparine or 0 μg/ml β-cyclodextrin derivative)]. Test results for the heparin treated platelets were evaluated by the scoring system described in Thromb. Haemost. (1999) 82:1255-1259. Control tests were scored positive when the calculated ratios of at least 2 donors were more then 2, based on previously obtained results with normal individuals. To evaluate the potential of the different β-cyclodextrin derivatives to induce platelet activation, both the percentages and ratios of CD62p^+ platelets after incubation with the respective β-cyclodextrin were statistically compared to the percentage and the ratio of CD62p^+ platelets after heparin incubation.

normal pooled plasma = assay: Blood coagulation activities (aPTT, PT, fibrinogen) in normal pooled plasma; parameters: species or system human; settings: after incubation with 50 or 100 μg/ml
Protocol: MA-CDPS, HP-CDPS, CE-CDPS and CDPS (as defined in examples 3-4 and characterised in table 1) were prepared as buffered solutions at various concentrations. The polysaccharides were incubated with normal pooled plasma prepared out of 40 healthy volunteers and analyzed for their effects on activated partial thromboplastin time (aPTT), prothrombin time (PT) and fibrinogen levels on a STA Compact® coagulation analyzer (available from Diagnostica Stago, Asnieres, France) according to the manufacturers instructions.

thrombin clotting = settings: in vitro; cited from earlier work
[5] = HIT ab plasma pat1, platelet donor dA
[6] = HIT ab plasma pat1, platelet donor dB
[7] = HIT ab plasma pat2, platelet donor dB
[8] = HIT ab plasma pat3, platelet donor dA
[9] = HIT ab plasma pat3, platelet donor dB
[10] = HIT ab plasma pat4, platelet donor dA
[11] = HIT ab plasma pat4, platelet donor dB

In the case of “2,3-di-O-methyl-6-sulfate-β-cyclodextrin [ME-CD-6-S]”, the “effect on chondrocyte aggrecan synthesis” value [1] is reported as “failed to affect” and the “effect on chondrocyte IL-6 release/secretion” value [2] is reported as “failed to affect”.
For “2,6-di-O-methyl-3-sulfate-β-cyclodextrin [ME-CD-3-S]”, the “effect on chondrocyte aggrecan synthesis” value [1] was “failed to affect” and the “effect on chondrocyte IL-6 release/secretion” value [2] was “failed to affect”.
For `COC[C@H]1O[C@@H]2O[C@H]3[C@H](OC)[C@@H](OC)[C@@H](O[C@H]4[C@H](OC)[C@@H](OC)[C@@H](O[C@H]5[C@H](OC)[C@@H](OC)[C@@H](O[C@H]6[C@H](OC)[C@@H](OC)[C@@H](O[C@H]7[C@H](OC)[C@@H](OC)[C@@H](O[C@H]8[C@H](OC)[C@@H](OC)[C@@H](O[C@H]1[C@H](OC)[C@H]2OC)O[C@@H]8COC)O[C@@H]7COC)O[C@@H]6COC)O[C@@H]5COC)O[C@@H]4COC)O[C@@H]3COC` [ME-CD, 2,3,6-tri-O-methyl-β-cyclodextrin], the “effect on chondrocyte aggrecan synthesis” value [1] was “failed to promote” and the “effect on chondrocyte IL-6 release/secretion” value [2] was “failed”.
For β-cyclodextrin polysulfate [CDPS], the “cartilage lesions and osteocyte formation in the affected joints” value [3] is listed as “reduced”, the “ratio: % CD62p+ (with substance)/% CD62p+ (without)” value (“ratio: % CD62p+ … (without)” below) [4, 5] is listed as 5.8 and the “ΔCD62p+ %: percentage increases in CD62p positive platelets” value (shortened to “ΔCD62p+ %: percentage increases”) [4, 5] is listed as 76.1%. For the same molecule, the “ratio: % CD62p+ … (without)” value [4, 6] was 6.5, the “ΔCD62p+ %: percentage increases” value [4, 6] was 73.1% and the “ΔCD62p+ %: percentage increases” value ([4]; HIT ab plasma pat2, platelet donor dA) was 27.5%. For the same molecule, the “ratio: % CD62p+ … (without)” value [4, 7] was 0.7, the “ΔCD62p+ %: percentage increases” value [4, 7] was −2.8% and the “ratio: % CD62p+ … (without)” value [4, 8] was 2.5. The “ΔCD62p+ %: percentage increases” value [4, 8] was 42.7%, the “ratio: % CD62p+ … (without)” value [4, 9] was 7.0 and the “ΔCD62p+ %: percentage increases” value [4, 9] was 34.1%. For the same molecule, the “ratio: % CD62p+ … (without)” value [4, 10] was 4.4, the “ΔCD62p+ %: percentage increases” value [4, 10] was 63.5% and the “ratio: % CD62p+ … (without)” value [4, 11] was 2.5. The “ΔCD62p+ %: percentage increases” value [4, 11] was 58.1%, the platelet activation ([4]; in the presence of plasma samples of individuals that had developed HIT Ab) was “induced platelet activation” and the fibrinogen concentrations (normal pooled plasma) was “Minor decreases”. The thrombin clotting times (thrombin clotting) was “prolongation” and the thrombus formation (thrombin clotting) was “reduction”.

Reference: patent publication US20110172182A1, “Carboxyethylated Cyclodextrin Polysulfates Useful As Medicaments” (ARCARIOS B.V., priority 2008, published 2011)
